ChEMBL document CHEMBL5108067, “Discovery of Potent OTUB1/USP8 Dual Inhibitors Targeting Proteostasis in Non-Small-Cell Lung Cancer” (J Med Chem, 2022)
Active and inactive are the calls of the source. The rule behind the calls is not given here.

What was measured:
Mus musculus [1] = test: In vivo inhibition of USP8 in NCI-H1975 cells xenografted BALB/c nude mouse model assessed as decrease in EGFR level at 15 mg/kg/day, po measured after 5 days by Western blot analysis; format: functional, organism-based; conditions: time 5.0 day
[2] = biological target: T1, Ubiquitin thioesterase OTUB1 (Homo sapiens, UniProt Q96FW1); test: Inhibition of N-terminal His-6 tagged OTUB1 (40 to 271 residues) (unknown origin) expressed in Escherichia coli BL21 (DE3) cells using Ub-Rho measured after 0.5 to 3 hrs by fluorescence based Plate reader method
T1 sequence (Q96FW1 whole entry, the tested form may be a part): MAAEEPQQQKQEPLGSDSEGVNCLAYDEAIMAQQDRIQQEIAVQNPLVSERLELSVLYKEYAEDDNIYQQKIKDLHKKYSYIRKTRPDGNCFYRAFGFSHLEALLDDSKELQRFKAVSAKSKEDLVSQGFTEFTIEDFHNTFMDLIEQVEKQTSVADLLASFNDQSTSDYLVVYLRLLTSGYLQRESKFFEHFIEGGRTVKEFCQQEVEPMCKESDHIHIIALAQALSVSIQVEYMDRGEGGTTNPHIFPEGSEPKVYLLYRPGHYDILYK

NCI-H1975 [3] = test: Antitumor activity against human NCI-H1975 cells xenografted in BALB/c nude mouse model assessed as reduction of tumor burden at 5 mg/kg, ip qd for 2 weeks; format: functional, organism-based
[4] = Oral bioavailability in ICR mouse at 10 mg/kg measured upto 1440 mins by LC-MS/MS analysis; format: ADME, organism-based; conditions: in vivo
[5] = biological target: T2, Ubiquitin carboxyl-terminal hydrolase 8 (Homo sapiens) (UniProt P40818); test: Inhibition of USP8 in human NCI-H1975 cells assessed as reduction in EGFR protein level at 500 nM measured for 24 hrs by immunoblotting analysis; format: cell-based
T2 sequence (whole entry): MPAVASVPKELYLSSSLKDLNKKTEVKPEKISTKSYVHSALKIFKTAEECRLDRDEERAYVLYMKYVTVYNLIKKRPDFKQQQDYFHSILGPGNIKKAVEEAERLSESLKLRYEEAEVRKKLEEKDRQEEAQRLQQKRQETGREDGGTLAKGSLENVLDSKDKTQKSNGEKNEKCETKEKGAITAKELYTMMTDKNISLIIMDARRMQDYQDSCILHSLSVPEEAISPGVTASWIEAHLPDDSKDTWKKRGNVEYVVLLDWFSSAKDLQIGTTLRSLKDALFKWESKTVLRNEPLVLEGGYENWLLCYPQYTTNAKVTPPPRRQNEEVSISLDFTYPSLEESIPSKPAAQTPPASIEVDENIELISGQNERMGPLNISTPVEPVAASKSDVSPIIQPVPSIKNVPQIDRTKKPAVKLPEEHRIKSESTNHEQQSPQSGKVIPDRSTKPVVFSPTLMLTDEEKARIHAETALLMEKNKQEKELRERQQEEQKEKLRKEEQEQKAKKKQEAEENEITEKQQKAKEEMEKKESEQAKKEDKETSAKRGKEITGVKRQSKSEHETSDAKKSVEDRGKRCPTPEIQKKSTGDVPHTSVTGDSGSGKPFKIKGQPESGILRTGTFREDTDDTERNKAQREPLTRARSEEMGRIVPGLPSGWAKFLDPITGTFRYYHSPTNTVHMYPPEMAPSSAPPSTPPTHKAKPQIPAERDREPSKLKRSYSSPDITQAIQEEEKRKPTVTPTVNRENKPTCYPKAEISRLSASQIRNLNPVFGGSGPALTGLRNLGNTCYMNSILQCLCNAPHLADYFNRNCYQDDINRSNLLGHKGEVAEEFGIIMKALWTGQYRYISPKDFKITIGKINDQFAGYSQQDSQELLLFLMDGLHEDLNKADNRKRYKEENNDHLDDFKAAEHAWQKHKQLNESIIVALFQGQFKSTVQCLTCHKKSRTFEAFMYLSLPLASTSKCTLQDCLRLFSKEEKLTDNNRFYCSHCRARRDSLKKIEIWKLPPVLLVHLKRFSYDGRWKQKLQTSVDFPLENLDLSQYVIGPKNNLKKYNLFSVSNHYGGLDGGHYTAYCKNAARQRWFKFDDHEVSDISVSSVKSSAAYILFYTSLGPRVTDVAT

Mus musculus [6] = test: In vivo inhibition of OTUB1 in NCI-H1975 cells xenografted BALB/c nude mouse model assessed as decrease in UBE2N level at 15 mg/kg/day, po measured after 5 days by Western blot analysis; format: functional, organism-based; conditions: time 5.0 day
[7] = biological target: T1, Ubiquitin thioesterase OTUB1; test: Inhibition of OTUB1 in human NCI-H1975 cells assessed as reduction in protein level at 500 nM measured for 24 hrs by immunoblotting analysis; format: cell-based
[8] = Half life in ICR mouse at 10 mg/kg, po measured upto 1440 mins by LC-MS/MS analysis; format: ADME, organism-based; conditions: in vivo
[9] = biological target: T1, Ubiquitin thioesterase OTUB1; test: Inhibition of OTUB1 in human NCI-H1975 cells assessed as reduction in UBE2N protein level at 500 nM measured for 24 hrs by immunoblotting analysis; format: cell-based
Mus musculus [10] = test: In vivo inhibition of USP8 in human NCI-H1975 cells xenografted BALB/c nude mouse model assessed as decrease in USP8 level at 15 mg/kg/day, po measured after 5 days by Western blot analysis; format: functional, organism-based; conditions: time 5.0 day
[11] = AUC in ICR mouse at 1 mg/kg, iv measured upto 1440 mins by LC-MS/MS analysis; format: ADME, organism-based; design: time < 1440 min, dose 1 mg/kg, route iv; conditions: in vivo, 24 h
Mus musculus [12] = test: In vivo inhibition of OTUB1 in human NCI-H1975 cells xenografted BALB/c nude mouse model assessed as decrease in OTUB1 level at 15 mg/kg/day, po measured after 5 days by Western blot analysis; format: functional, organism-based; conditions: time 5.0 day
[13] = Volume of distribution at steady state in ICR mouse at 1 mg/kg, iv measured upto 1440 mins by LC-MS/MS analysis; format: ADME, organism-based; conditions: in vivo, 24 h
NCI-H1975 [14] = test: Antitumor activity against human NCI-H1975 cells xenografted in BALB/c nude mouse model assessed as reduction in tumor volume at 5 mg/kg, ip bid for 2 weeks; format: functional, organism-based
[15] = biological target: T2, Ubiquitin carboxyl-terminal hydrolase 8 (Homo sapiens); test: Destabilization of N-terminal His-6 tagged USP8 (734 to 1110 residues) (unknown origin) expressed in Escherichia coli BL21 (DE3) cells assessed as change in melting temperature at 200 uM measured for 2 hrs in presence of dithiothreitol by SYPRO orange dye based thermal shift assay
[16] = AUC in ICR mouse at 10 mg/kg, po measured upto 1440 mins by LC-MS/MS analysis; format: ADME, organism-based; design: time < 1440 min, dose 10 mg/kg, route po; conditions: in vivo
[17] = Cmax in ICR mouse at 10 mg/kg, po measured upto 1440 mins by LC-MS/MS analysis; format: ADME, organism-based; design: dose 10 mg/kg, time < 1440 min, route po; conditions: in vivo
NCI-H1975 [18] = test: Antitumor activity against human NCI-H1975 cells xenografted in BALB/c nude mouse model assessed as reduction of total tumor weight at 5 mg/kg, ip bid for 2 weeks; format: functional, organism-based
[19] = biological target: T2, Ubiquitin carboxyl-terminal hydrolase 8 (Homo sapiens); test: Inhibition of USP8 in human NCI-H1975 cells assessed as reduction in protein level at 500 nM measured for 24 hrs by immunoblotting analysis; format: cell-based
[20] = Half life in ICR mouse at 1 mg/kg, iv measured upto 1440 mins by LC-MS/MS analysis; format: ADME, organism-based; conditions: in vivo, 24 h
[21] = Tmax in ICR mouse at 10 mg/kg, po measured upto 1440 mins by LC-MS/MS analysis; format: ADME, organism-based; conditions: in vivo
[22] = biological target: T1, Ubiquitin thioesterase OTUB1; test: Inhibition of N-terminal His-6 tagged OTUB1 (40 to 271 residues) (unknown origin) expressed in Escherichia coli BL21 (DE3) cells at […] using Ub-Rho measured after 0.5 to 3 hrs by fluorescence based Plate reader method relative to control; conditions: dose 2.5 µM, time 0.5-3 hrs

CN1CC[C@@H](Oc2ccc(F)c(-c3nc4c(o3)C(=O)c3ccccc3C4=O)c2Cl)C1
Activity (Mus musculus [1]): Active | IC50 [2]: 0.17 nM | Activity (NCI-H1975 [3]): Active | bioavailability [4]: 27.9% | inhibition [5]: Active | Activity (Mus musculus [6]): Active | inhibition [7]: Active | half-life [8]: 105 min | inhibition [9]: Active | Activity (Mus musculus [10]): Active | AUC [11]: 1345 ng·h/mL | Activity (Mus musculus [12]): Active | Vdss [13]: 0.77 L/kg | Activity (NCI-H1975 [14]): Active | ΔTm [15]: 2 °C | AUC at 24 h [16]: 3750 ng·h/mL | Cmax [17]: 4270 ng/mL | Activity (NCI-H1975 [18]): Active | inhibition [19]: Active | t1/2 [20]: 49.8 min | Tmax [21]: 19.8 min

CN1CC[C@@H](Oc2ccc(Cl)c(-c3nc4c(o3)C(=O)c3ccccc3C4=O)c2)C1
IC50 [2]: 7.1 nM | bioavailability [4]: 7.5% | inhibition [5]: Active | half-life [8]: 86.4 min | inhibition [9]: Active | AUC [11]: 306 ng·h/mL | Vdss [13]: 2.37 L/kg | AUC at 24 h [16]: 229 ng·h/mL | Cmax [17]: 313 ng/mL | t1/2 [20]: 51.6 min | Tmax [21]: 19.8 min

O=C1c2ccccc2C(=O)c2oc(-c3cccnc3)nc21
IC50 [2]: 1.7 nM | inhibition [22]: 100%

CN1CC[C@@H](Oc2ccc(Cl)c(-c3nc4c(o3)C(=O)c3ccccc3C4=O)c2F)C1
IC50 [2]: 0.42 nM
